Patent US6818639B2, “Pharmaceutical combination formulation and method of treatment with the combination” (Biovitrum AB, priority 2000, dated 2004)
Read-outs that look alike come from different tables or passages of the source.

Columns and labels:
ob/ob mice = experiment: Food intake test in ob/ob mice; assay type: in vivo
Experimental: 5-HT2C receptor agonists (2R)-methyl-1-{3-[2-(3-pyridinyloxy)ethoxy]-2-pyrazinyl}piperazine, fumarate (“PNU-183933F”) and (2R)-1-(3-{2-[(2-ethoxy-3-pyridinyl)oxy]ethoxy}-2-pyrazinyl)-2-methylpiperazine, fumarate (“BVT.2938F”) were dissolved in saline (0.9% NaCl) and diluted in the same vehicle to the appropriate concentration.
5-HT6 receptor antagonists 6-methyl-9-(phenylsulfonyl)-1,2,3,4,5,6-hexahydroazepino[4,5-b]indole, hydrochloride (“PNU-186053A”) and 1-(phenylsulfonyl)-4-(1-piperazinyl)-1H-indole, hydrochloride (5-HT6 receptor antagonist (“BVT.5182C”) were dissolved and diluted in 25% cyclodextrin.
Male mice 8-9 weeks old (C57BL/6JBom-Lep^ob (ob/ob), Bomholtsgaard, Denmark) with an average body weight of 45 g were used. The animals were housed singly in cages at 23±1° C., 40-60% humidity and had free access to water and standard laboratory chow. The 12/12 h light/dark cycle was set to lights off at 5 p.m. The animals were conditioned for at least one week before start of study. During experimental sessions, the animals obtained special chow (BioServ, Frenchtown, N.J., USA dust-free precision pellets weighing 20 mg each).
At the start of the study the animals were transferred to special cages “operant test cages” (Habitest Modular Animal Behavior Test System; Colbourn Instr, Allentown, Pa., USA). These cages consist of a feeder trough with sensors for measurement of food intake, an optic lickometer for registration of water intake and an infrared-based monitor for recording overall general motor activity. The monitors are coupled to a computer, which controls and monitor events continuously. Food pellets were weighed to the amount needed for one whole study and water bottles were filled with fresh tap water and weighed. The animals were conditioned to their new environment for three days to establish baseline values. The animals were weighed at 3 p.m. at the start and at the end of the study. The compounds were administered between 4.20 and 5.00 p.m. before dark onset. Three groups of animals received (i) 5-HT6 antagonist in 25% cyclodextrin; (ii) 5-HT2C agonist in saline; and (iii) the combination 5-HT2C agonist/5-HT6 antagonist, respectively. When combined, 5-HT6 antagonist or saline was administered 30 min before administration of the 5-HT2C agonist or 25% cyclodextrin. A fourth group received respectively vehicle administered in the same way. The study ended on the fifth day. Weighing was performed with a computer-assisted Mettler-Toledo PR5002/PR802 balance.
Each dose group consisted of 12-16 animals. […] The values were expressed as % of basal food intake (mean±SEM) for the difference between food intake before treatment and 3 h (5 pm-8 pm), 6 h (5 pm-11 pm), 12 h (5 pm-5 am), 21 h (5 pm-2 pm).

humans = conditions: cited from earlier work
[1] = test system: mice that express the normal 5-HT2C receptor / mutated inactive form; conditions: cited from earlier work
[2] = combination BVT.2938F 5 mg/kg subcutaneously + BVT.5182C 3 mg/kg subcutaneously, at 12 and 21 hours following administration, FIG. 2
[3] = combination PNU-186053A 50 mg/kg subcutaneously + PNU-183933F 50 mg/kg per orally, FIG. 1

With `CCOc1ncccc1OCCOc1nccnc1N1CCNC[C@H]1C.O=C(O)/C=C/C(=O)O` [BVT.2938F, (2R)-1-(3-{2-[(2-ethoxy-3-pyridinyl)oxy]ethoxy}-2-pyrazinyl)-2-methylpiperazine, fumarate] the “food consumption (food intake), combined treatment vs compounds given alone” value (“food consumption … vs compounds given alone” for short) (ob/ob mice; [2]) was “significantly more than the compounds given alone”.

With `Cl.O=S(=O)(c1ccccc1)n1ccc2c(N3CCNCC3)cccc21` [BVT.5182C, 1-(phenylsulfonyl)-4-(1-piperazinyl)-1H-indole, hydrochloride] the “food consumption … vs compounds given alone” value (ob/ob mice; [2]) was “significantly more than the compounds given alone”.

For `C[C@@H]1CNCCN1c1nccnc1OCCOc1cccnc1.O=C(O)/C=C/C(=O)O` [PNU-183933F, (2R)-methyl-1-{3-[2-(3-pyridinyloxy)ethoxy]-2-pyrazinyl}piperazine, fumarate], the “food consumption … vs compounds given alone” value (ob/ob mice; [3]) was “decreased food consumption significantly more than the compounds given alone”.

With `Cl.Cn1c2c(c3cc(S(=O)(=O)c4ccccc4)ccc31)CCNCC2` [PNU-186053A, 6-methyl-9-(phenylsulfonyl)-1,2,3,4,5,6-hexahydroazepino[4,5-b]indole, hydrochloride] the “food consumption … vs compounds given alone” value (ob/ob mice; [3]) was “decreased food consumption significantly more than the compounds given alone”.

In the case of `Cn1c2c(c3ccccc31)CCNCC2` [U-22394A], the body weight (humans; nine weeks of treatment) is listed as “reduce body weight”.

For `Clc1cccc(N2CCNCC2)c1` [m-CPP, m-chlorophenylpiperazine], the body weight (humans; two weeks of treatment) is given as “reduce body weight”, the food intake ([1]; mice expressing the mutated inactive form of the 5-HT2C receptor) is given as “lacks activity” and the food intake ([1]; mice that express the normal 5-HT2C receptor) is given as “reduces food intake”.
